From patent US20140378513A1, “USE OF FUNGICIDES IN LIQUID SYSTEMS” (priority 2011, published 2014)

Assays:
[1] = tested on: Pest in infected Scenedesmus dimorphus culture; assay: Fungicide efficacy on pest control in infected microalgae culture; format: cell-based; conditions: for Rating: rating scale of 0 to 3 by percent efficacy; for positive efficacy in a first trial confirmed in a second trial: Table 6; for Scenedesmus dimorphus efficacy: first trial; for Scenedesmus dimorphus Efficacy confirmation: second trial
Source text: Failure to treat an infected culture results in the collapse and loss of the microalgae culture. […] Test fungicides are graded on a rating scale of 0 to 3 where a score of 0 represents an efficacy of between 0 and 25%, a score of 1 represents an efficacy of between 26 and 50%, a score of 2 represents an efficacy of between 51 and 75% and a score of 3 represents an efficacy of between 76 and 100%.

Scenedesmus dimorphus = assay: Algae sensitivity screen, 96 well, growth rate by A750 over 8 days; format: cell-based
Procedure: (§1) The total volume per well is 200 μl. Each chemical is tested in triplicate.

Desmid species = assay: as above; format: cell-based
Procedure: as §1

Scenedesmus species = assay: as above; format: cell-based
Procedure: as §1

microalgae = assay: Ranges of microalgae toxicity (serial dilution of fungicide in growing culture); conditions: range in which fungicide begins to show growth effects on microalgae
Source text: The present disclosure provides for the introduction of fungicides at an effective concentration. Effective concentrations may be determined according to manufacturer's instructions or may be determined empirically. An effective concentration of a fungicide is not toxic to the microalgae being cultured in the liquid system. Methods to determine toxicity are known in the art and include serial dilutions of a test fungicide in a growing liquid culture of microalgae. One of skill in the art would understand that different microalgae may have different ranges of toxicity that may be determined by growth of a microalga in the presence of a serial dilution of a fungicide.
Algae are screened for sensitivity to chemicals by preparing 180 ml of a log phase culture. The log phase culture is transferred into a 96 well microtiter plate at an absorbance at 750 nm (OD750 or A750) of ˜0.2. Twenty microliters of media is provided into the top row as a negative control, the middle six rows receive a 20 microliter dilution, which is a 10 fold dilution of the chemical at each transfer, of the chemical across an appropriate concentration gradient, and the bottom row receives 20 microliter of the solvent used to solubilize the pesticide alone as a control. The total volume per well is 200 μl. Each chemical is tested in triplicate. The growth of the algae is tracked daily by measuring the A750. After 8 days, the growth rate of the algae is measured by fitting the growth curve to a log model and deriving the maximum growth rate (r). The impact of the chemical is calculated by comparing the r of the algae at various dilutions of the pesticide to the control.

[2] = log phase culture, 10 fold dilutions
[3] = log phase culture, 10 fold dilutions, 8 days
[4] = Tetradesmus dimorphus, read-out: Scenedesmus dimorphus efficacy

Compound: O=C(Nc1ccccc1)N(Cc1ccc(Cl)cc1)C1CCCC1 [pencycuron]
- Rating [1]: 0 (a score of 0 represents an efficacy of between 0 and 25%)
- Scenedesmus dimorphus toxicity (Scenedesmus dimorphus; [2]): 3.125-12.5 ppm
- Desmid species toxicity (Desmid species; [2]): 3.125-12.5 ppm
- Scenedesmus species toxicity (Scenedesmus species; [3]): 0.781-3.125 ppm
- Ranges of Microalgae toxicity (microalgae): 0.781-12.5 ppm

Compound: N#CC(Br)(Br)C(N)=O [dibromocyanoacetamide, 2,2-dibromo-2-cyanoacetamide]
- positive efficacy in a first trial confirmed in a second trial [1]: not confirmed
- activity at 5 ppm [1, 4]: 35.4%
- Rating [1]: 0 (a score of 0 represents an efficacy of between 0 and 25%)

Compound: CON=C(C(=O)OC)c1ccccc1CON=C(C)c1cccc(C(F)(F)F)c1 [trifloxystrobin]
- Rating [1]: 0 (a score of 0 represents an efficacy of between 0 and 25%)

Compound: CCCOC/C(=N\c1ccc(Cl)cc1C(F)(F)F)n1ccnc1 [triflumizole]
- Rating [1]: 0 (a score of 0 represents an efficacy of between 0 and 25%)
- Scenedesmus dimorphus toxicity (Scenedesmus dimorphus; Scenedesmus dimorphus): 1.563-6.25 ppm
- Desmid species toxicity (Desmid species; Desmid species): 1.563-6.25 ppm
- Scenedesmus species toxicity (Scenedesmus species; Scenedesmus species, 8 days): 1.563-6.25 ppm
- Ranges of Microalgae toxicity (microalgae): 1.563-6.25 ppm

Compound: COC(=O)NC(=S)Nc1ccccc1NC(=S)NC(=O)OC [thiophanate-methyl, methyl N-[[2-(methoxycarbonylcarbamothioylamino)phenyl]carbamothioyl]carbamate]
- activity at 5 ppm [1, 4]: 9.6%
- Rating [1]: 0 (a score of 0 represents an efficacy of between 0 and 25%)

Compound: CC(Cc1ccc(C(C)(C)C)cc1)CN1CCCCC1 (stereo not drawn) [fenpropidin, 1-[3-(4-tert-butylphenyl)-2-methylpropyl]piperidine]
- positive efficacy in a first trial confirmed in a second trial [1]: not confirmed
- activity at 0.8 ppm [1, 4]: 18.5%
- Rating [1]: 0 (a score of 0 represents an efficacy of between 0 and 25%)
- Scenedesmus dimorphus toxicity (Scenedesmus dimorphus; [2]): 0.00195-0.0078 ppm
- Desmid species toxicity (Desmid species; [2]): 0.031-0.125 ppm
- Scenedesmus species toxicity (Scenedesmus species; cell marked (ppb)): 0.488-1.953 ppb
- Ranges of Microalgae toxicity (microalgae): 0.00195-1.953 ppm

Compound: OC(Cc1ccccc1Cl)(Cn1nc[nH]c1=S)C1(Cl)CC1 (stereo not drawn) [prothioconazole]
- Rating [1]: 0 (a score of 0 represents an efficacy of between 0 and 25%)

Compound: O=C(Nc1ccccc1)c1ccccc1I [benodanil, 2-Iodo-N-phenylbenzamide]
- positive efficacy in a first trial confirmed in a second trial [1]: not confirmed
- activity at 5 ppm [1, 4]: 38.7%
- Rating [1]: 0 (a score of 0 represents an efficacy of between 0 and 25%)
- Scenedesmus dimorphus toxicity (Scenedesmus dimorphus; [2]): 0.3125-1.25 ppm
- Scenedesmus species toxicity (Scenedesmus species; [3]): 0.3125-1.25 ppm
- Ranges of Microalgae toxicity (microalgae): 0.3125-1.25 ppm

Compound: COCC(=O)N(c1c(C)cccc1C)C(C)C(=O)OC (stereo not drawn) [metalaxyl]
- Rating [1]: 0 (a score of 0 represents an efficacy of between 0 and 25%)

Compound: CC(C)(C)C(O)(CCc1ccc(Cl)cc1)Cn1cncn1 (stereo not drawn) [tebuconazole]
- Rating [1]: 0 (a score of 0 represents an efficacy of between 0 and 25%)

Compound: Cc1ccc(N(SC(F)(Cl)Cl)S(=O)(=O)N(C)C)cc1 [tolylfluanid, N-[dichloro(fluoro)methyl]sulfanyl-N-(dimethylsulfamoyl)-4-methylaniline]
- Scenedesmus dimorphus efficacy ([1]; 5 ppm, result in words): 5 ppm Delayed Crash
- Rating [1]: 0 (a score of 0 represents an efficacy of between 0 and 25%)
- Scenedesmus dimorphus toxicity (Scenedesmus dimorphus; Scenedesmus dimorphus): 1.56-6.25 ppm
- Desmid species toxicity (Desmid species; Desmid species): 6.25-25.0 ppm
- Scenedesmus species toxicity (Scenedesmus species; Scenedesmus species, 8 days): 6.25-25.0 ppm
- Ranges of Microalgae toxicity (microalgae): 1.56-25.0 ppm

Compound: CNC(=O)/C(=N/OC)c1ccccc1COc1cc(C)ccc1C [dimoxystrobin]
- Rating [1]: 0 (a score of 0 represents an efficacy of between 0 and 25%)
- Scenedesmus dimorphus toxicity (Scenedesmus dimorphus; [2]): 0.0156-0.0625 ppm
- Desmid species toxicity (Desmid species; [2]): 0.004-0.0156 ppm
- Scenedesmus species toxicity (Scenedesmus species; [3]): 0.0156-0.0625 ppm
- Ranges of Microalgae toxicity (microalgae): 0.004-0.0625 ppm

Compound: CCCC1COC(Cn2cncn2)(c2ccc(Cl)cc2Cl)O1 (stereo not drawn) [propiconazole, 1-[[2-(2,4-dichlorophenyl)-4-propyl-1,3-dioxolan-2-yl]methyl]-1,2,4-triazole]
- Scenedesmus dimorphus Efficacy confirmation ([1]; @ 0.8 ppm): 18.6% @ 0.8 ppm
- activity at 0.32 ppm [1, 4]: 30.6%
- Rating [1]: 0 (a score of 0 represents an efficacy of between 0 and 25%)

Compound: CCNC(=O)NC(=O)/C(C#N)=N/OC [cymoxanil]
- Rating [1]: 0 (a score of 0 represents an efficacy of between 0 and 25%)

Compound: CCCN(CC)CC1COC2(CCC(C(C)(C)C)CC2)O1 (stereo not drawn) [spiroxamine]
- Rating [1]: 0 (a score of 0 represents an efficacy of between 0 and 25%)
- Scenedesmus dimorphus toxicity (Scenedesmus dimorphus; Scenedesmus dimorphus): 0.0625-0.250 ppm
- Desmid species toxicity (Desmid species; Desmid species): 0.250-1.0 ppm
- Scenedesmus species toxicity (Scenedesmus species; Scenedesmus species, 8 days): 0.250-1.0 ppm
- Ranges of Microalgae toxicity (microalgae): 0.0625-1.0 ppm

Compound: CCC(C)(NC(=O)c1cc(Cl)c(C)c(Cl)c1)C(=O)CCl (stereo not drawn) [zoxamide]
- Rating [1]: 0 (a score of 0 represents an efficacy of between 0 and 25%)
- Scenedesmus dimorphus toxicity (Scenedesmus dimorphus; Scenedesmus dimorphus): 0.0625-0.250 ppm
- Desmid species toxicity (Desmid species; Desmid species): 0.0156-0.0625 ppm
- Scenedesmus species toxicity (Scenedesmus species; Scenedesmus species, 8 days): 0.0156-0.0625 ppm
- Ranges of Microalgae toxicity (microalgae): 0.0156-0.250 ppm

Compound: CSC(=O)c1cccc2nnsc12 [benzo(1,2,3)thiadiazole-7-carbothioic acid-5-methyl ester]
- Scenedesmus dimorphus efficacy ([1]; @ 0.8 ppm, percent of growth of treated culture compared to uninfected control growth rate): 17.5% @ 0.8 ppm

Compound: dinocap
- Rating [1]: 0 (a score of 0 represents an efficacy of between 0 and 25%)
- Scenedesmus dimorphus toxicity (Scenedesmus dimorphus; [2]): 0.0039-0.0156 ppm
- Scenedesmus species toxicity (Scenedesmus species; [3]): 0.0156-0.0625 ppm
- Ranges of Microalgae toxicity (microalgae): 0.0039-0.0625 ppm

Compound: Cc1cc(C2CC2)nc(Nc2ccccc2)n1 [cyprodinil, 4-Cyclopropyl-6-methyl-N-phenylpyrimidin-2-amine]
- activity at 2 ppm [1, 4]: 8.1%
- Rating [1]: 0 (a score of 0 represents an efficacy of between 0 and 25%)

Compound: O=C(Nc1ccccc1-c1ccc(Cl)cc1)c1cccnc1Cl [boscalid]
- Rating [1]: 0 (a score of 0 represents an efficacy of between 0 and 25%)

Compound: CO/N=C(/C(=O)OC)c1ccccc1COc1ccccc1C [kresoxim-methyl]
- Rating [1]: 0 (a score of 0 represents an efficacy of between 0 and 25%)

Compound: CC1CN(C2CCCCCCCCCCC2)CC(C)O1 (stereo not drawn) [dodemorph]
- Rating [1]: 0 (a score of 0 represents an efficacy of between 0 and 25%)
- Scenedesmus dimorphus toxicity (Scenedesmus dimorphus; [2]): 0.195-0.781 ppm
- Scenedesmus species toxicity (Scenedesmus species; [3]): 0.195-0.781 ppm
- Ranges of Microalgae toxicity (microalgae): 0.195-0.781 ppm

Compound: mancozeb
- Rating [1]: 0 (a score of 0 represents an efficacy of between 0 and 25%)

Compound: N#Cc1sc2c(=O)c3ccccc3c(=O)c=2sc1C#N [dithianon, 5,10-dioxobenzo[g][1,4]benzodithiine-2,3-dicarbonitrile]
- Scenedesmus dimorphus Efficacy confirmation ([1]; @ 5 ppm): 52.2% @ 5 ppm
- activity at 5 ppm [1, 4]: 37%
- Rating [1]: 2 (a score of 2 represents an efficacy of between 51 and 75%)
- Scenedesmus dimorphus toxicity (Scenedesmus dimorphus; Scenedesmus dimorphus): 0.625-2.5 ppm
- Ranges of Microalgae toxicity (microalgae): 0.625-2.5 ppm

Compound: CCCCCCCCCCCCNC(=N)N [dodine, dodecylguanidinium acetate]
- Scenedesmus dimorphus Efficacy confirmation ([1]; @ 2 ppm): 100% @ 2 ppm
- activity at 2 ppm [1, 4]: 93.9%
- Rating [1]: 3 (a score of 3 represents an efficacy of between 76 and 100%)

Compound: CC1(C(=O)Nc2ccc(O)c(Cl)c2Cl)CCCCC1 [fenhexamid]
- Rating [1]: 0 (a score of 0 represents an efficacy of between 0 and 25%)
- Desmid species toxicity (Desmid species; Desmid species): 15.63-62.5 ppm
- Ranges of Microalgae toxicity (microalgae): 15.63-62.5 ppm

Compound: CCC(C)c1cc([N+](=O)[O-])cc([N+](=O)[O-])c1OC(=O)C=C(C)C (stereo not drawn) [binapacryl]
- Scenedesmus dimorphus toxicity (Scenedesmus dimorphus; [2]): 0.125-0.5 ppm
- Scenedesmus species toxicity (Scenedesmus species; [3]): 0.125-0.5 ppm
- Ranges of Microalgae toxicity (microalgae): 0.125-0.5 ppm

Compound: CO/C=C(/C(=O)OC)c1ccccc1Oc1cc(Oc2ccccc2C#N)ncn1 [azoxystrobin]
- Rating [1]: 0 (a score of 0 represents an efficacy of between 0 and 25%)

Compound: O=[N+]([O-])C(Br)(CO)CO [bronopol, 2-bromo-2-nitropropane-1,3-diol]
- activity at 5 ppm [1, 4]: 14.3%
- Rating [1]: 0 (a score of 0 represents an efficacy of between 0 and 25%)

Compound: OC(c1ccc(Cl)cc1)(c1cncnc1)c1ccccc1Cl (stereo not drawn) [fenarimol, (2-chlorophenyl)-(4-chlorophenyl)-pyrimidin-5-ylmethanol]
- positive efficacy in a first trial confirmed in a second trial [1]: not confirmed
- activity at 2 ppm [1, 4]: 31%
- Rating [1]: 0 (a score of 0 represents an efficacy of between 0 and 25%)
- Scenedesmus dimorphus toxicity (Scenedesmus dimorphus; [2]): 0.0489-0.195 ppm
- Scenedesmus species toxicity (Scenedesmus species; [3]): 0.0489-0.195 ppm
- Ranges of Microalgae toxicity (microalgae): 0.0489-0.195 ppm

Compound: CCO[PH](=O)O [fosetyl-aluminum (100 mg), fosetyl-aluminum]
- Rating [1]: 0 (a score of 0 represents an efficacy of between 0 and 25%)

Compound: O=CNC(N1CCN(C(NC=O)C(Cl)(Cl)Cl)CC1)C(Cl)(Cl)Cl (stereo not drawn) [triforin]
- Rating [1]: 0 (a score of 0 represents an efficacy of between 0 and 25%)
